Assay results taken from US20130178449A1, “2-Methylene-20(21)-Dehydro-19,24,25,26,27-Pentanor-Vitamin D Analogs” (WISCONSIN ALUMNI RESEARCH FOUNDATION, priority 2011, published 2013).
Read-outs that look alike come from different tables or passages of the source.

Tests used:
[1] = Bone calcium mobilization (serum calcium) in vitamin D-deficient rats; format: in vivo, rat; conditions: ip, 4 consecutive days, rats on 0.02% Ca diet
Method: (§1) Male, weanling Sprague-Dawley rats were placed on Diet 11 (0.47% Ca) diet+AEK oil for one week followed by Diet 11 (0.02% Ca)+AEK oil for 3 weeks. The rats were then switched to a diet containing 0.47% Ca for one week followed by two weeks on a diet containing 0.02% Ca. Dose administration began during the last week on 0.02% calcium diet. Four consecutive ip doses were given approximately 24 hours apart. Twenty-four hours after the last dose, blood was collected from the severed neck and the concentration of serum calcium determined as a measure of bone calcium mobilization. The first 10 cm of the intestine was also collected for intestinal calcium transport analysis using the everted gut sac method.

[2] = tested on: 24-hydroxylase (24Ohase) gene promoter; assay: In vitro transcription assay (24-hydroxylase promoter luciferase reporter in ROS 17/2.8 bone cells); format: cell-based; conditions: for EC50: ROS 17/2.8 cells, 24-hydroxylase gene, FIG. 3, read-out: EC50, transcriptional activity in bone cells
Method: Transcription activity was measured in ROS 17/2.8 (bone) cells that were stably transfected with a 24-hydroxylase (24Ohase) gene promoter upstream of a luciferase reporter gene (Arbour et al., 1998). Cells were given a range of doses. Sixteen hours after dosing the cells were harvested and luciferase activities were measured using a luminometer.
RLU=relative luciferase units.

[3] = Intestinal calcium transport (everted gut sac) in vitamin D-deficient rats; format: in vivo, rat; conditions: ip, 4 consecutive days
Method: as §1

HL-60 cells = assay: HL-60 differentiation (nitro blue tetrazolium reduction); format: cell-based, human; conditions: for EC50: HL-60 cells into monocytes, FIG. 2, read-out: EC50, HL-60 cell differentiation
Method: The study drugs were dissolved in ethanol and the concentrations determined using UV spectrophotometry. Serial dilutions were prepared so that a range of drug concentrations could be tested without changing the final concentration of ethanol (≦0.2%) present in the cell cultures.
Human promyelocytic leukemia (HL60) cells were grown in RPMI-1640 medium containing 10% fetal bovine serum. The cells were incubated at 37° C. in the presence of 5% CO2.
HL60 cells were plated at 1.2×10^5 cells/ml. Eighteen hours after plating, cells in duplicate were treated with drug. Four days later, the cells were harvested and a nitro blue tetrazolium reduction assay was performed (Collins et al., 1979; J. Exp. Med. 149:969-974). The percentage of differentiated cells was determined by counting a total of 200 cells and recording the number that contained intracellular black-blue formazan deposits. Verification of differentiation to monocytic cells was determined by measuring phagocytic activity (data not shown).

[4] = biological target: T1, full-length recombinant rat vitamin D receptor (Rattus norvegicus, UniProt P13053); assay: Vitamin D receptor binding (competition with [3H]-1,25(OH)2D3)
T1 construct: Full-length recombinant rat receptor was expressed in E. coli BL21 (DE3) Codon Plus RIL cells; histidine tag (C); made in house; host or cells: E. coli BL21 (DE3) Codon Plus RIL
T1 sequence (P13053 1-423): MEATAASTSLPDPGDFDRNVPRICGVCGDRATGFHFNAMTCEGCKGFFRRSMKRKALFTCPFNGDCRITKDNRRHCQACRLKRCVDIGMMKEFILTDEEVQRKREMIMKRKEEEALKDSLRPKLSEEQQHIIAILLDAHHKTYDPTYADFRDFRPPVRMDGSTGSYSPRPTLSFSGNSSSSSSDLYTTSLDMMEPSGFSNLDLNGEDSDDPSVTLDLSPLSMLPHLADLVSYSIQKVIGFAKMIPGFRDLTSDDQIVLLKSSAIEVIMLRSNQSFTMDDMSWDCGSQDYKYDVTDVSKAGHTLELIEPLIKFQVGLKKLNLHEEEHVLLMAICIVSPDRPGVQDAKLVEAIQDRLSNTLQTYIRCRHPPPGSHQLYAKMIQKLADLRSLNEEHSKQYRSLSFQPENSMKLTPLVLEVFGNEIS
Method: Full-length recombinant rat receptor was expressed in E. coli BL21 (DE3) Codon Plus RIL cells and purified to homogeneity using two different column chromatography systems. The first system was a nickel affinity resin that utilizes the C-terminal histidine tag on this protein. The protein that was eluted from this resin was further purified using ion exchange chromatography (S-Sepharose Fast Flow). Aliquots of the purified protein were quick frozen in liquid nitrogen and stored at −80° C. until use. For use in binding assays, the protein was diluted in TEDK50 (50 mM Tris, 1.5 mM EDTA, pH7.4, 5 mM DTT, 150 mM KCl) with 0.1% Chaps detergent. The receptor protein and ligand concentration were optimized such that no more than 20% of the added radiolabeled ligand was bound to the receptor.
Radiolabeled and unlabeled ligands were added to 100 mcl of the diluted protein at a final ethanol concentration of ≦10%, mixed and incubated overnight on ice to reach binding equilibrium. The following day, 100 mcl of hydroxylapatite slurry (50%) was added to each tube and mixed at 10-minute intervals for 30 minutes. The hydroxylapaptite was collected by centrifugation and then washed three times with Tris-EDTA buffer (50 mM Tris, 1.5 mM EDTA, pH 7.4) containing 0.5% Titron X-100. […] Total binding was determined from the tubes containing only radiolabeled ligand.

Row | SMILES | bone calcium mobilization (serum calcium) ([1]; 260 pmol/day) | EC50 [2] [nM] | intestinal calcium transport ([3]; 260 pmol/day) | EC50 (HL-60 cells) [nM] | bone calcium mobilization (serum calcium) ([1]; 7020 pmol/day) | bone calcium mobilization (serum calcium) ([1]; 35100 pmol/day) | VDR binding activity relative to 1α,25-dihydroxyvitamin D3 ([4]; compared to native hormone) | Ki ([4]; full-length recombinant rat VDR, FIG. 1) [nM] | times less potent than 1,25(OH)2D3 in increasing transcription of the 24-hydroxylase gene ([2]; bone cells, compared to 1,25(OH)2D3) [times] | intestinal calcium transport ([3]; 7020 pmol/day) | intestinal calcium transport ([3]; 35100 pmol/day) | EC50 (HL-60 cells; Homo sapiens) [nM] | times less potent than 1,25(OH)2D3 on HL-60 cell differentiation (HL-60 cells; compared to 1,25(OH)2D3)
1 | C=C1/C(=C\C=C2/CCC[C@]3(C)[C@@H]([C@H](C)CCCC(C)(C)O)CC[C@@H]23)C[C@@H](O)C[C@@H]1O [1,25(OH)2D3, 1α,25-dihydroxyvitamin D3, reference compound] | increased serum calcium levels | 0.2 | significant increase | 3 | – | – | – | – | – | – | – | – | –
2 | C=C1[C@H](O)CC(=C/C=C2\CCC[C@]3(C)[C@@H](C(=C)CC)CC[C@@H]23)C[C@H]1O [MDBE 20, 2-methylene-20(21)-dehydro-19,24,25,26,27-pentanor-1α-hydroxyvitamin D3] | – | 4 | – | – | did not result in mobilization of bone calcium | no substantial effect was seen | about one-half log less active | 0.08 | 10 | does not promote intestinal calcium transport | does not promote intestinal calcium transport | 30 | about 10 times
